From PubChem BioAssay AID1963851 (Molecular Pharmacology Branch, DTP, NCI, 2024)
pIC50: −log10 of the molar value.

Tested on: 188146-221-R-J1-PDC complex spheroid viability
Test: Anticancer human tumor 188146-221-R-J1-PDC patient-derived colon adenocarcinoma cell line growth inhibition [POLQ]
Conditions: for pIC50: curve of first compound; for viability, T/C: stronger effect = lower value
Procedure: Multicellular complex tumor spheroid response to Polymerase (POL) inhibitors (novobiocin, ART-558, RP6685) in combination with a variety of drugs and investigational agents in selected tumor cell lines
The POL inhibitors (novobiocin, ART-558, and RP6685) were evaluated both individually and in combination with standard of care and investigational anticancer small molecules within a complex spheroid model of solid tumors. . Complex spheroids include a stromal component modeled by human endothelial cells (HUVEC) and fibroblasts modeled by human mesenchymal stem cells (MSCs). The concentration ranges selected for each drug and investigational agent were based upon clinically achievable concentrations if the clinical Cmax of the agent was known.
Compounds. The drugs and investigational agents: novobiocin (NSC847541), ART-558 (NSC835418), RP-6685 (NSC848927), peposertib (NSC802822), ceralasertib (NSC780249), elimusertib (NSC800525), camonsertib (NSC841442), AZD-1390 (NSC803789), olaparib (NSC753686), talazoparib (NSC767125), rucaparib (NSC756644), sotorasib (NSC818433), MRTX-1133 (NSC836407), SN-38 (NSC673596), topotecan (NSC609699), epotoside (NSC141540), doxorubicin (NSC123127), gemcitabine (NSC613327), 5-fluorouracil (NSC19893), paclitaxel (NSC125973), vemurafenib (NSC761431), MSA-2 (NSC828583), SN-011 (NSC837082), adavosertib (NSC754352), prexasertib (NSC758257), carboplatin (NSC241240) and oxaliplatin (NSC266046), were obtained from the National Cancer Institute (NCI) Developmental Therapeutics Program Chemical Repository (21). The FDA-approved anticancer drug set is available from the Developmental Therapeutics Program at https://dtp.cancer.gov/organization/dscb/obtaining/. […] The stock solutions were prepared in dimethyl sulfoxide (DMSO, Sigma-Aldrich, St. Louis, MO, cat. D2650), except for the platinum compounds which were prepared in saline (Quality Biological, Gaithersburg, MD, cat. 114-055-101), at 800-fold the tested concentration and stored at -70 degrees C prior to their use. All drugs and investigational agents were tested over a range starting from a high concentration at or near the clinical Cmax and decreasing in half-log increments. If the clinical Cmax for an agent had not been determined, the highest concentration tested was 10 microM, except for SN-38, which was tested at a high concentration of 1 microM.
Cell Culture. All cells were maintained in an incubator at 37 degrees C and 5% CO2 with 95% humidity. The PDC lines were cultured according to standard operating procedures established by the NCI PDMR (https://pdmr.cancer.gov). Table 3 of the manuscript, lists the cell lines along with the number of the three cell types plated to form the mct-spheroids and media for tumor cell growth. After thawing, all PDC lines, except 997537-175-T-J1-PDC and 415267-285-R-J2-PDC, were cultured in Matrigel-coated flasks prepared with a working solution of 1X Ham's F-12 nutrient mix, without supplementation (Thermo Fisher Scientific, cat. 11765054), 100 U/mL penicillin-streptomycin (Thermo Fisher Scientific, cat. 15140122), and 2.5% Matrigel (Corning Inc., Corning, NY, cat. 354248) for the first three passages. The two PDC lines 997537-175-T-J1-PDC and 415267-285-R-J2-PDC were cultured on uncoated flasks. The 857933-349-R-J2-PDC line was cultured in 6C/Colon 1B media containing advanced DMEM/F-12 (Thermo Fisher Scientific, cat. 12634028), 10 mM HEPES (Thermo Fisher Scientific, cat. 15630080), 1X GlutaMAX supplement (Thermo Fisher Scientific, cat. 35050061), 0.1 mg/mL primocin (InvivoGen, San Diego, CA, cat. ant-pm-2), 10% defined fetal bovine serum, heat inactivated (HyClone Laboratories Inc., Logan, UT, cat. SH30070.03HI), 50% L-WRN conditioned media (ATCC, cat. CRL-3276), 1.25 mM N-Acetyl-L-cysteine (Sigma-Aldrich, cat. A9165), 10 mM nicotinamide (Sigma-Aldrich, cat. N0636), 1X B-27 supplement (Thermo Fisher Scientific, cat. 17504044), 1X N-2 supplement (Thermo Fisher Scientific, cat. […]

[1] = second compound 0.0316 µM, first compound 0.0316 µM
[2] = second compound 0.0316 µM, first compound 0.1 µM
[3] = second compound 0.0316 µM, first compound 0.316 µM
[4] = second compound 0.0316 µM, first compound 1 µM
[5] = second compound 0.0316 µM, first compound 3.16 µM
[6] = second compound 0.0316 µM, first compound 10 µM
[7] = second compound 0.1 µM, first compound 0.0316 µM
[8] = second compound 0.1 µM, first compound 0.1 µM
[9] = second compound 0.1 µM, first compound 0.316 µM
[10] = second compound 0.1 µM, first compound 1 µM
[11] = second compound 0.1 µM, first compound 3.16 µM
[12] = second compound 0.1 µM, first compound 10 µM
[13] = second compound 0.316 µM, first compound 0.0316 µM
[14] = second compound 0.316 µM, first compound 0.1 µM
[15] = second compound 0.316 µM, first compound 0.316 µM
[16] = second compound 0.316 µM, first compound 1 µM
[17] = second compound 0.316 µM, first compound 3.16 µM
[18] = second compound 0.316 µM, first compound 10 µM
[19] = second compound 1 µM, first compound 0.0316 µM
[20] = second compound 1 µM, first compound 0.1 µM
[21] = second compound 1 µM, first compound 0.316 µM
[22] = second compound 1 µM, first compound 1 µM
[23] = second compound 1 µM, first compound 3.16 µM
[24] = second compound 1 µM, first compound 10 µM
[25] = second compound 3.16 µM, first compound 0.0316 µM
[26] = second compound 3.16 µM, first compound 0.1 µM
[27] = second compound 3.16 µM, first compound 0.316 µM
[28] = second compound 3.16 µM, first compound 1 µM
[29] = second compound 3.16 µM, first compound 3.16 µM
[30] = second compound 3.16 µM, first compound 10 µM
[31] = second compound 10 µM, first compound 0.0316 µM
[32] = second compound 10 µM, first compound 0.1 µM
[33] = second compound 10 µM, first compound 0.316 µM
[34] = second compound 10 µM, first compound 1 µM
[35] = second compound 10 µM, first compound 3.16 µM
[36] = second compound 10 µM, first compound 10 µM
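Also: spheroids exposed to compounds for seven days.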
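For viability, T/C in this document: 100% = DMSO vehicle control viability.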

In the case of `COc1cccc2c1C(=O)c1c(O)c3c(c(O)c1C2=O)CC(O)(C(=O)CO)CC3OC1CC(N)C(O)C(C)O1` (centres undefined) + COC1C(OC(N)=O)C(O)C(Oc2ccc3c(O)c(NC(=O)c4ccc(O)c(CC=C(C)C)c4)c(=O)oc3c2C)OC1(C)C, the pIC50 (second compound 0.0316 µM) was 6.81, the pIC50 (second compound 0.1 µM) was 6.84 and the pIC50 (second compound 0.316 µM) was 6.79. For the same compound, the pIC50 (second compound 1 µM) was 6.84, the pIC50 (second compound 3.16 µM) was 6.97 and the pIC50 (second compound 10 µM) was 6.82. The viability, T/C [1] was 90.2%, the viability, T/C [2] was 59.5% and the viability, T/C [3] was 33.8%. For the same compound, the viability, T/C [4] was 13.1%, the viability, T/C [5] was 0.29% and the viability, T/C [6] was 0.43%. The viability, T/C [7] was 91.8%, the viability, T/C [8] was 57.5% and the viability, T/C [9] was 32.5%. For the same compound, the viability, T/C [10] was 11.4%, the viability, T/C [11] was 0.37% and the viability, T/C [12] was 0.4%. The viability, T/C [13] was 92.7%, the viability, T/C [14] was 61.1% and the viability, T/C [15] was 34%. For the same compound, the viability, T/C [16] was 16.4%, the viability, T/C [17] was 0.2% and the viability, T/C [18] was 0.41%. The viability, T/C [19] was 94.9%, the viability, T/C [20] was 54% and the viability, T/C [21] was 40.1%. It also gave a viability, T/C [22] of 9.16%, a viability, T/C [23] of 0.41% and a viability, T/C [24] of 0.44%. It also gave a viability, T/C [25] of 85.3%, a viability, T/C [26] of 47.1% and a viability, T/C [27] of 35.4%. For the same compound, the viability, T/C [28] was 8.24%, the viability, T/C [29] was 0.22% and the viability, T/C [30] was 0.55%. It also gave a viability, T/C [31] of 77.9%, a viability, T/C [32] of 56.6% and a viability, T/C [33] of 36.5%. For the same compound, the viability, T/C [34] was 9.76%, the viability, T/C [35] was 0.33% and the viability, T/C [36] was 0.51%.
`O=C(c1cc(Cc2n[nH]c(=O)c3ccccc23)ccc1F)N1CCN(C(=O)C2CC2)CC1` + Cc1cccc(N(C)C(=O)C2C(O)CCN2c2nc(C)cc(C(F)(F)F)c2C#N)c1 gave a pIC50 (second compound 0.0316 µM) of under 5.00, a pIC50 (second compound 0.1 µM) of under 5.00 and a pIC50 (second compound 0.316 µM) of under 5.00. It also gave a pIC50 (second compound 1 µM) of under 5.00, a pIC50 (second compound 3.16 µM) of under 5.00 and a pIC50 (second compound 10 µM) of under 5.00. It also gave a viability, T/C [1] of 109%, a viability, T/C [2] of 105% and a viability, T/C [3] of 108%. It also gave a viability, T/C [4] of 92.8%, a viability, T/C [5] of 93.9% and a viability, T/C [6] of 73.9%. The viability, T/C [7] was 108%, the viability, T/C [8] was 103% and the viability, T/C [9] was 101%. It also gave a viability, T/C [10] of 101%, a viability, T/C [11] of 89.5% and a viability, T/C [12] of 88.8%. The viability, T/C [13] was 105%, the viability, T/C [14] was 102% and the viability, T/C [15] was 95.6%. It also gave a viability, T/C [16] of 101%, a viability, T/C [17] of 90.2% and a viability, T/C [18] of 77.8%. The viability, T/C [19] was 109%, the viability, T/C [20] was 106% and the viability, T/C [21] was 96.7%. For the same compound, the viability, T/C [22] was 103%, the viability, T/C [23] was 87.7% and the viability, T/C [24] was 78.4%. For the same compound, the viability, T/C [25] was 89.5%, the viability, T/C [26] was 102% and the viability, T/C [27] was 106%. For the same compound, the viability, T/C [28] was 86.7%, the viability, T/C [29] was 93.1% and the viability, T/C [30] was 76.9%. For the same compound, the viability, T/C [31] was 99.8%, the viability, T/C [32] was 90.1% and the viability, T/C [33] was 96.3%. For the same compound, the viability, T/C [34] was 98.2%, the viability, T/C [35] was 95.6% and the viability, T/C [36] was 82.1%.
